# Reference: the supplement of paper PMC8671470
# Tests used:
# [1] = system: KG-1; test: cell viability (% survival relative to DMSO control, bortezomib = 0%); higher = less cytotoxic; details: 72 h
# Summary of the method: (§1)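 Fifteen myeloid leukaemia cell lines (10 AML, 5 CML) were seeded at a density titrated to the linear growth range. They went into 384-well plates with compounds pre-printed at 1, 10, 100, 1000 or 10000 nM in duplicate. After 72 h at 37 °C with 5% CO2, viability was read by CellTiter-Glo luminescence. Values are percent survival, with vehicle set to 100% and a 10 µM positive control to 0%, averaged over the duplicates.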
# [2] = system: THP-1; test: as above; details: 72 h
# Summary of the method: as §1
Compound,cell viability ([1]; 1 nM) [%],cell viability ([1]; 10 nM) [%],cell viability ([1]; 100 nM) [%],cell viability ([1]; 1000 nM) [%],cell viability ([1]; 10000 nM) [%],cell viability ([2]; 1 nM) [%],cell viability ([2]; 10 nM) [%],cell viability ([2]; 100 nM) [%],cell viability ([2]; 1000 nM) [%],cell viability ([2]; 10000 nM) [%]
C=CCc1ccc2c(c1O)C(=O)c1ccccc1C2=O [R162],85.5,98,107,109,114,101,99.1,102,109,109
NC(=O)c1ncn([C@@H]2O[C@H](CO)[C@@H](O)[C@H]2O)n1 [Ribavirin],98.9,110,96.8,95.2,98.1,96.5,103,107,107,112
O=C(O)CC[C@H](NC(=O)c1ccc([N+](=O)[O-])cc1)C(=O)O [(S)-2-(4-Nitrobenzamido)pentanedioic acid],95.5,93.2,97.4,98.6,99.9,102,107,93.7,105,95.5
Clc1ccc2c(c1Cl)CNCC2,94.3,98.7,98.7,101,71.9,98.8,99.4,99.7,105,90.5
O=c1c2ccccc2[se]n1-c1ccccc1 [Ebselen],98.2,89.7,105,80.3,75.4,94.9,95.1,93,98.7,81.8
CCOC(=O)[C@H]1O[C@@H]1C(=O)N[C@@H](CC(C)C)C(=O)NCCC(C)C [Aloxistatin],99.8,104,103,92.9,86.5,104,110,96.9,95.2,95.7
Clc1ccc(COC(Cn2ccnc2)c2ccc(Cl)cc2Cl)cc1 (stereo not given) [Econazole],97.4,95.3,101,86,52.2,102,94.9,95.7,87.9,62
Oc1cc(Cl)ccc1Oc1ccc(Cl)cc1Cl [Triclosan],111,89.3,98.3,109,143,92.7,98.5,103,108,92
CC(C)Cc1sc(N)nc1-c1ccc(P(=O)(O)O)o1,110,90.8,102,98.8,108,107,103,98.3,104,95.5
O=C(O)c1nn(Cc2ccc(Cl)cc2Cl)c2ccccc12 [Lonidamine],97.8,103,103,84.7,71.9,107,97,102,99.3,101
CCOc1ccc(Cc2cc([C@@H]3O[C@H](CO)[C@@H](O)[C@H](O)[C@H]3O)ccc2Cl)cc1 [Dapagliflozin],95.5,102,83.6,101,91.8,88.4,100,86.4,101,90.1
